We go through nine compounds from patent US20100092526A1, “NANOEMULSION THERAPEUTIC COMPOSITIONS AND METHODS OF USING THE SAME” (NanoBio Corporation, priority 2008, published 2010).

Structures are written as SMILES. ≈ marks a conversion by molar mass, not a printed value. Where “and” joins values, the source holds several entries; their conditions need not be identical. Equal values may be shown once. Read-outs that look alike come from different tables or passages of the source.

The term MBC denotes the smallest concentration meeting the test's criterion for killing. High values mean less potent killing, low ones more potent killing. The MIC is the lowest concentration found to suppress growth. A higher MIC goes with a need for much substance.

The assay relates to methicillin-resistant Staphylococcus aureus (MRSA). Put plainly: Susceptibility (MIC/MBC) of MRSA clinical isolates. It is filed as cell-based. Conditions: for MBC50(15) / MIC50(15) / MBC90(26) / MIC90(26): 29 MRSA clinical isolates; for MBC50(15) / MIC50(15): rank 15; for MBC90(26) / MIC90(26): rank 26.
The mark [1] stands for this setting: individual MRSA clinical isolates, values listed by rank order 1-29.
Setting [2] is: Staphylococcus aureus, MRSA isolates, read-out: MIC90.
The mark [3] stands for this setting: silver nitrate column, individual MRSA clinical isolates by rank order 1-29.

For `C/C(=C\C(=O)OCCCCCCCCC(=O)O)C[C@@H]1OC[C@H](C[C@@H]2O[C@H]2[C@@H](C)[C@H](C)O)[C@@H](O)[C@H]1O` [Mupirocin, mupirocin], the isolates resistant (MRSA isolates) worked out at 31%.
As to `Cc1onc(-c2ccccc2)c1C(=O)N[C@@H]1C(=O)N2[C@@H]1SC(C)(C)[C@@H]2C(=O)O` [Ox], the “MBC50(15)” value is greater than 16 µg/mL, the “MIC50(15)” value was greater than 16 µg/mL, the “MBC90(26)” value was greater than 16 µg/mL and the “MIC90(26)” value was greater than 16 µg/mL. Moreover, under setting [1], the MBC is >16 μg/ml (28×) and 1 μg/ml; the minimal inhibitory concentration (MIC) was >16 μg/ml (26×) and 16 μg/ml (2×) and 0.5 μg/ml.
In the case of `COc1cc(Cc2cnc(N)nc2N)cc(OC)c1OC` [Trim], the “MBC50(15)” value turned out to be 0.5 µg/mL (≈ 1.72 µM), the “MIC50(15)” value worked out at 0.125 µg/mL (≈ 0.431 µM), the “MBC90(26)” value was greater than 4 µg/mL and the “MIC90(26)” value turned out to be 0.5 µg/mL (≈ 1.72 µM). Further, under setting [1], the MBC is >64 μg/ml and >16 μg/ml (2×) and >4 μg/ml and >2 μg/ml (3×) and 4 μg/ml and 2 μg/ml (3×) and 1 μg/ml (2×) and 0.5 μg/ml (5×) and 0.25 μg/ml (6×) and 0.125 μg/ml (4×) and 0.0125 μg/ml; the MIC is >64 μg/ml and 1 μg/ml (2×) and 0.5 μg/ml and 0.25 μg/ml and 0.125 μg/ml (24×).
As for `CN[C@H](CC(C)C)C(=O)N[C@H]1C(=O)N[C@@H](CC(N)=O)C(=O)N[C@H]2C(=O)N[C@H]3C(=O)N[C@H](C(=O)N[C@H](C(=O)O)c4cc(O)cc(O)c4-c4cc3ccc4O)[C@H](O)c3ccc(c(Cl)c3)Oc3cc2cc(c3O[C@@H]2O[C@H](CO)[C@@H](O)[C@H](O)[C@H]2O[C@H]2C[C@](C)(N)[C@H](O)[C@H](C)O2)Oc2ccc(cc2Cl)[C@H]1O` [Vanco], the “MBC50(15)” value was found to be 1 µg/mL (≈ 0.69 µM), the “MIC50(15)” value stood at 1 µg/mL (≈ 0.69 µM), the “MBC90(26)” value turned out to be 2 µg/mL (≈ 1.38 µM) and the “MIC90(26)” value was 1 µg/mL (≈ 0.69 µM). In addition, under setting [1], the MBC is 4 μg/ml (3×) and 2 μg/ml (7×) and 1 μg/ml (16×) and 0.5 μg/ml (3×); the minimum inhibitory concentration (MIC) is 2 μg/ml and 1 μg/ml (20×) and 0.5 μg/ml (8×).
In the case of `C[C@H]1c2cccc(O)c2C(=O)C2=C(O)[C@]3(O)C(=O)C(C(N)=O)=C(O)[C@@H](N(C)C)[C@@H]3[C@@H](O)[C@@H]21` [doxycycline], the MIC90 under setting [2] turned out to be 4 µg/mL (≈ 9 µM).
The compound `O=[N+]([O-])[O-].[Ag+]` [silver nitrate] had an MIC90 (MRSA isolates) of 0.00063%. Besides, under “silver nitrate column”, the “MBC50(15)” value was 0.0025 µg/mL, the “MIC50(15)” value was found to be 0.00031 µg/mL, the “MBC90(26)” value was greater than 0.01 µg/mL and the “MIC90(26)” value came to 0.00063 µg/mL. Also, under setting [3], the minimum bactericidal concentration (MBC) was 0.01 μg/ml and >0.01 μg/ml (3×) and >0.005 μg/ml (3×) and 0.005 μg/ml and 0.0025 μg/ml (12×) and 0.00125 μg/ml (9×); the minimal inhibitory concentration (MIC) is 0.0025 μg/ml and 0.00125 μg/ml (2×) and 0.00626 μg/ml (7×) and 0.00312 μg/ml (19×).
On to `Cc1cc(NS(=O)(=O)c2ccc(N)cc2)no1` [sulfamethoxazole], for which the MIC90 under setting [2] turned out to be 4 µg/mL (≈ 15.8 µM).
`COc1cc(Cc2cnc(N)nc2N)cc(OC)c1OC` [trimethoprim]: under setting [2], the MIC90 is 0.5 µg/mL (≈ 1.72 µM).
`CN[C@H](CC(C)C)C(=O)N[C@H]1C(=O)N[C@@H](CC(N)=O)C(=O)N[C@H]2C(=O)N[C@H]3C(=O)N[C@H](C(=O)N[C@H](C(=O)O)c4cc(O)cc(O)c4-c4cc3ccc4O)[C@H](O)c3ccc(c(Cl)c3)Oc3cc2cc(c3O[C@@H]2O[C@H](CO)[C@@H](O)[C@H](O)[C@H]2O[C@H]2C[C@](C)(N)[C@H](O)[C@H](C)O2)Oc2ccc(cc2Cl)[C@H]1O` [vancomycin]: for the setting “MRSA, ratio of MBC90/MIC90”, the cidality entry is listed as “bactericidal (A compound or nanoemulsion is defined as bactericidal if its MBC/MIC ratio was ˜4)”. The same compound returned an MIC90 (Staphylococcus aureus, MRSA) of 1 µg/mL (≈ 0.69 µM).
